Where two headings read alike, the source gives them in different places.
What was measured:
Test in all cases: Kinetic assays of purified pNB esterase on ester substrates in DMF/PIPES
Format in all cases: biochemical
[1] = molecular target: T1, Bacillus subtilis para-nitrobenzyl esterase variant 1-1H9 (incl. Tyr 370 Phe), SEQ. ID. NO. 4 (Bacillus subtilis, UniProt P37967, form not given/H322R/Y370F); conditions: 0.1 M PIPES pH 7.0, 30° C.
Protocol: (§1) FIG. 8a is a plot of variant and wild type pNB esterase reaction kinetics on pNPA in aqueous buffer (0% dimethylformamide). Enzymes were added to a 30° C. reaction solution consisting of 0.1 M PIPES (pH 7.0) and varying concentrations of pNPA.
(§2) FIG. 8b is a plot of variant and wild type pNB esterase reaction kinetics on pNPA in 15% DMF. Enzymes were added to a 30° C. reaction solution consisting of 0.1 M PIPES (pH 7.0), 15% DMF, and varying concentrations of pNPA.
(§3) FIG. 8c is a plot of variant and wild type pNB esterase reaction kinetics on pNPA in 30% DMF. Enzyme were added to a 30° C. reaction solution consisting of 0.1 M PIPES (pH 7.0), 30% DMF, and varying concentrations of pNPA.
(§4) FIG. 9a is a plot of variant wild type pNB esterase kinetics on LCN-pNP in 1% DMF. Enzymes listed were added to a 30° C. reaction solution consisting of 0.1 M PIPES (pH 7.0), 1% DMF, and varying concentrations of LCN-pNP.
(§5) FIG. 9b is a plot of variant and wild type pNB esterase reaction kinetics on LCN-pNP in 15% DMF. Enzymes were added to a 30° C. reaction solution consisting of 0.1 M PIPES (pH 7.0), 15% DMF, and varying concentrations of LCN-pNP.
(§6) FIG. 9c is a plot of variant and wild type pNB esterase reaction kinetics on LCN-pNP in 30% DMF. Enzymes were added to a 30° C. reaction solution consisting of 0.1 M PIPES (pH 7.0), 30% DMF, and varying concentrations of LCN-pNP.
(§7) FIG. 10a is a plot of variant and wild type pNB esterase reaction kinetics on LCN-pNB in 1% DMF. Enzymes were added to a 30° C. reaction solution consisting of 0.1 M PIPES (pH 7.0), 1% DMF, and varying concentrations of LCN-pNB.
(§8) FIG. 10b is a plot of variant and wild type pNB esterase reaction kinetics on LCN-pNB in 15% DMF. Enzyme were added to a 30° C. reaction solution consisting of 0.1 M PIPES (pH 7.0), 15% DMF, and varying concentrations of LCN-pNB.
Bacteria expressing seven pNB esterases, O-WT (SEQ. ID. NO. 2), 1-1H9, 2-19E10, 3-10C4, 4-38B9, 4-43E7, and 4-54B9, were grown in on cultures, and the enzymes were purified. These purified enzymes were assayed for their ability to hydrolyze the different ester substrates in the presence of various concentrations of DMF.
(§9) Kinetic assays were performed on three substrates: pNPA, LCN-pNP, and p-nitrobenzyl loracarbef nucleus (LCN-pNB). For pNPA and LCN-pNP substrates, final concentrations varying from 0.0625 mM to 16 mM and 0, 15, and 30% DMF in 0.1 M PIPES (pH 7.0) were combined with equal volumes of enzyme samples. These samples were mixed simultaneously in a 96 well plate and monitored with the 96 well plate reader. The absorbance values were recorded, linearly regressed, and then used for calculating kinetic parameters. For the LCN-pNB substrate, final concentrations varying from 0.0156 mM to 8.0 mM and 0, 15 and 30% DMF in PIPES (pH 7.0) were combined with enzyme samples in a quartz cuvette and were measured in a spectrophotometer at 289 nm. All assays were measured in triplicate.

[2] = molecular target: Bacillus subtilis para-nitrobenzyl esterase (pNB esterase), wild type 0-WT, SEQ. ID. NO. 2 (Bacillus subtilis, UniProt P37967); conditions: 0.1 M PIPES pH 7.0, 30° C.
Protocol: as §1, §2, §3, §4, §5, §6, §7, §8
(§10) Bacteria expressing seven pNB esterases, O-WT (SEQ. ID. NO. 2), 1-1H9, 2-19E10, 3-10C4, 4-38B9, 4-43E7, and 4-54B9, were grown in on cultures, and the enzymes were purified. These purified enzymes were assayed for their ability to hydrolyze the different ester substrates in the presence of various concentrations of DMF. FIGS. 8a, b and c show the specific reaction rates on pNPA as a function of pNPA substrate concentration for this series of evolved variants from the four generations of mutagenesis and screening. […] The wild type enzyme outperforms 1-1H9 in purely aqueous buffer (FIG. 8a). The actual screening, however, was performed in the presence of DMF, and in 15 and 30% DMF, 1-1H9 has higher specific activity towards pNPA than wild type (FIGS. 8b and 8c). Similar trends are seen for the remaining variants assayed on this substrate. […] In 30% DMF, wild type drops still further relative to the pNB esterase variants. Variants 4-38B9 and 4-43E7, presumably by virtue of having been screened in DMF for four rounds of mutagenesis, are the best performers in 30% DMF.
(§11) DMF dramatically increases KM while also decreasing kcat. For the LCN substrates, the mutations accumulated during directed evolution mitigate the increased KM. […] At substrate concentrations […], increased specific activity will result mainly from improvements in kcat. These improvements are the most useful for enzymes intended to be used for transformations in high substrate concentrations.
as §9, with “For the LCN-pNB substrate, final concentrations varying from 0.0156 mM to 8.0 mM and 0, 15 and 30% DMF in PIPES (pH 7.0) were combined with enzyme samples in a quartz cuvette and were measured in a spectrophotometer at 289 nm. All assays were measured in triplicate.” left out

[3] = molecular target: Bacillus subtilis para-nitrobenzyl esterase variant 2-19E10 (1-1H9 substitutions plus Met 358 Val), SEQ. ID. NO. 6 (Bacillus subtilis, UniProt P37967, form not given/H322R/M358V/Y370F); conditions: 0.1 M PIPES pH 7.0, 30° C.
Protocol: as §1, §2, §3, §4, §5, §6, §7, §8, §10, §11
as §9, with “For the LCN-pNB substrate, final concentrations varying from 0.0156 mM to 8.0 mM and 0, 15 and 30% DMF in PIPES (pH 7.0) were combined with enzyme samples in a quartz cuvette and were measured in a spectrophotometer at 289 nm. All assays were measured in triplicate.” left out

[4] = molecular target: Bacillus subtilis para-nitrobenzyl esterase variant 3-10C4 (2-19E10 plus Leu 144 Met), SEQ. ID. NO. 8 (Bacillus subtilis, UniProt P37967, form not given/H322R/L144M/M358V/Y370F); conditions: 0.1 M PIPES pH 7.0, 30° C.
Protocol: as §1, §2, §3, §4, §5, §6, §7, §8, §10, §11
as §9, with “For the LCN-pNB substrate, final concentrations varying from 0.0156 mM to 8.0 mM and 0, 15 and 30% DMF in PIPES (pH 7.0) were combined with enzyme samples in a quartz cuvette and were measured in a spectrophotometer at 289 nm. All assays were measured in triplicate.” left out

[5] = molecular target: Bacillus subtilis para-nitrobenzyl esterase variant 4-38B9 (3-10C4 plus Ile 60 Val), SEQ. ID. NO. 10 (Bacillus subtilis, UniProt P37967, form not given/H322R/I60V/L144M/M358V/Y370F); conditions: 0.1 M PIPES pH 7.0, 30° C.
Protocol: as §1, §2, §3, §4, §5, §6, §7, §8, §10, §11
as §9, with “For the LCN-pNB substrate, final concentrations varying from 0.0156 mM to 8.0 mM and 0, 15 and 30% DMF in PIPES (pH 7.0) were combined with enzyme samples in a quartz cuvette and were measured in a spectrophotometer at 289 nm. All assays were measured in triplicate.” left out

[6] = molecular target: Bacillus subtilis para-nitrobenzyl esterase variant 4-43E7 (3-10C4 plus Leu 334 Val and one more substitution), SEQ. ID. NO. 12 (Bacillus subtilis, UniProt P37967, form not given/H322R/L144M/L334V/M358V/S94G/Y370F); conditions: 0.1 M PIPES pH 7.0, 30° C.
Protocol: as §1, §2, §3, §4, §5, §6, §7, §8, §10, §11
as §9, with “For the LCN-pNB substrate, final concentrations varying from 0.0156 mM to 8.0 mM and 0, 15 and 30% DMF in PIPES (pH 7.0) were combined with enzyme samples in a quartz cuvette and were measured in a spectrophotometer at 289 nm. All assays were measured in triplicate.” left out

[7] = molecular target: Bacillus subtilis para-nitrobenzyl esterase variant 4-54B9 (3-10C4 plus Leu 334 Ser and one more substitution), SEQ. ID. NO. 14 (Bacillus subtilis, UniProt P37967, form not given/H322R/K267R/L144M/L334S/M358V/Y370F); conditions: for kcat (p-nitrobenzyl loracarbef nucleus) / Km / kcat (p-nitrophenyl loracarbef nucleus): 0.1 M PIPES pH 7.0, 30° C.
Protocol: as §1, §2, §3, §4, §5, §6, §7, §8, §10, §11
as §9, with “For the LCN-pNB substrate, final concentrations varying from 0.0156 mM to 8.0 mM and 0, 15 and 30% DMF in PIPES (pH 7.0) were combined with enzyme samples in a quartz cuvette and were measured in a spectrophotometer at 289 nm. All assays were measured in triplicate.” left out

[8] = molecular target: T1, Bacillus subtilis para-nitrobenzyl esterase variant 1-1H9 (incl. Tyr 370 Phe), SEQ. ID. NO. 4; conditions: 0% DMF, 0.1 M PIPES pH 7.0, 30° C.
[9] = 15% DMF, read-out: Km (p-nitrobenzyl loracarbef nucleus)
[10] = 0% DMF, read-out: Km (p-nitrobenzyl loracarbef nucleus)
[11] = 15% DMF, on LCN-pNB, relative to wild type
[12] = 15% DMF, read-out: Km (p-nitrophenyl loracarbef nucleus)
[13] = 30% DMF, read-out: Km (p-nitrophenyl loracarbef nucleus)
[14] = 0% DMF, read-out: Km (p-nitrophenyl loracarbef nucleus)

Sequence of Bacillus subtilis para-nitrobenzyl esterase variant 4-54B9 (3-10C4 plus Leu 334 Ser and one more substitution), SEQ. ID. NO. 14 (P37967 other isoform, or with tags, fused parts or gaps with the stated changes, form open): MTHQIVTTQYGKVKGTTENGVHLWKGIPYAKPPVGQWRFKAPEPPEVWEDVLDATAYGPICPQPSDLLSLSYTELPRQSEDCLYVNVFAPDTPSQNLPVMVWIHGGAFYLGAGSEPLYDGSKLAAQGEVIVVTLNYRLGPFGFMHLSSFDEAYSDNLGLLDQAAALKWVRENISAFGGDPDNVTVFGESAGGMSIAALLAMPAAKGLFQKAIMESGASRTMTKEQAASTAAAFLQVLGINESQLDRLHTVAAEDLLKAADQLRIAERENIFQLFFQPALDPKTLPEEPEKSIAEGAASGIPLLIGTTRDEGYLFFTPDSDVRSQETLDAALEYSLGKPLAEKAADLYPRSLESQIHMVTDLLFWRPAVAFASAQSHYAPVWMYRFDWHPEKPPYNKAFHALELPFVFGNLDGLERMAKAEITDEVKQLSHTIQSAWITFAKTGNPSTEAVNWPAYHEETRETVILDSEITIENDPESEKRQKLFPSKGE
Sequence of Bacillus subtilis para-nitrobenzyl esterase (pNB esterase), wild type 0-WT, SEQ. ID. NO. 2 (P37967 whole entry K23L/S59P/K95Q/N150D/S230A/G242S/K246R/S251A/A291S/V343A/K390E/L463V): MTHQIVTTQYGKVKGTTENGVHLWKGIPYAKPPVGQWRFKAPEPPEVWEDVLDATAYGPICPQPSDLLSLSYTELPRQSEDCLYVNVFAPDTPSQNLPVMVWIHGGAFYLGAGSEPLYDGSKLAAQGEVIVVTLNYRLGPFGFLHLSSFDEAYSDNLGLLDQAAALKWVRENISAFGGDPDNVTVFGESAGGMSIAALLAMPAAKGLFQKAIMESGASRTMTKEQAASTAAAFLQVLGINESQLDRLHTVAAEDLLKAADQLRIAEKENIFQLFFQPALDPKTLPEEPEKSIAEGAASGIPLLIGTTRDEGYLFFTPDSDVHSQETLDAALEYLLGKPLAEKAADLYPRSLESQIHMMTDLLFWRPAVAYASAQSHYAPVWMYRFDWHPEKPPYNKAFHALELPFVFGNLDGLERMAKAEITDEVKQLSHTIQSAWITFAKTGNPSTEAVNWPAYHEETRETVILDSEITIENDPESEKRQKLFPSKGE
Sequence of Bacillus subtilis para-nitrobenzyl esterase variant 3-10C4 (2-19E10 plus Leu 144 Met), SEQ. ID. NO. 8 (P37967 other isoform, or with tags, fused parts or gaps with the stated changes, form open): as the sequence (P37967 whole entry K23L/S59P/K95Q/N150D/S230A/G242S/K246R/S251A/A291S/V343A/K390E/L463V) above, with L144M, H322R, M358V, Y370F counted along it
Sequence of Bacillus subtilis para-nitrobenzyl esterase variant 4-43E7 (3-10C4 plus Leu 334 Val and one more substitution), SEQ. ID. NO. 12 (P37967 other isoform, or with tags, fused parts or gaps with the stated changes, form open): as the sequence (P37967 whole entry K23L/S59P/K95Q/N150D/S230A/G242S/K246R/S251A/A291S/V343A/K390E/L463V) above, with S94G, L144M, H322R, L334V, M358V, Y370F counted along it
T1 sequence (P37967 whole entry K23L/S59P/K95Q/N150D/S230A/G242S/K246R/S251A/A291S/H322R/V343A/Y370F/K390E/L463V, form open): as the sequence (P37967 whole entry K23L/S59P/K95Q/N150D/S230A/G242S/K246R/S251A/A291S/V343A/K390E/L463V) above, with H322R, Y370F counted along it
Sequence of Bacillus subtilis para-nitrobenzyl esterase variant 2-19E10 (1-1H9 substitutions plus Met 358 Val), SEQ. ID. NO. 6 (P37967 whole entry K23L/S59P/K95Q/N150D/S230A/G242S/K246R/S251A/A291S/H322R/V343A/M358V/Y370F/K390E/L463V, form open): as the sequence (P37967 whole entry K23L/S59P/K95Q/N150D/S230A/G242S/K246R/S251A/A291S/V343A/K390E/L463V) above, with H322R, M358V, Y370F counted along it
Sequence of Bacillus subtilis para-nitrobenzyl esterase variant 4-38B9 (3-10C4 plus Ile 60 Val), SEQ. ID. NO. 10 (P37967 other isoform, or with tags, fused parts or gaps with the stated changes, form open): as the sequence (P37967 whole entry K23L/S59P/K95Q/N150D/S230A/G242S/K246R/S251A/A291S/V343A/K390E/L463V) above, with I60V, L144M, H322R, M358V, Y370F counted along it

## NC1C(=O)N2C(C(=O)OCc3ccc([N+](=O)[O-])cc3)=C(Cl)CCC12 (stereo not drawn) [p-nitrobenzyl loracarbef nucleus]
[1]; 15% DMF
  kcat (p-nitrobenzyl loracarbef nucleus): 0.69
[1]; [9]
  Km: 850 µM
[2]; 0% DMF
  kcat (p-nitrobenzyl loracarbef nucleus): 1.64
[2]; [10]
  Km: 40 µM
[2]; 15% DMF
  kcat (p-nitrobenzyl loracarbef nucleus): 0.54
[2]; [9]
  Km: 880 µM
[3]; 0% DMF
  kcat (p-nitrobenzyl loracarbef nucleus): 4.59
[3]; [10]
  Km: 40 µM
[3]; 15% DMF
  kcat (p-nitrobenzyl loracarbef nucleus): 1.81
[3]; [9]
  Km: 870 µM
[4]; 0% DMF
  kcat (p-nitrobenzyl loracarbef nucleus): 6.53
[4]; [10]
  Km: 70 µM
[4]; 15% DMF
  kcat (p-nitrobenzyl loracarbef nucleus): 1.62
[4]; [9]
  Km: 400 µM
[5]; 0% DMF
  kcat (p-nitrobenzyl loracarbef nucleus): 8.51
[5]; [10]
  Km: 40 µM
[5]; 15% DMF
  kcat (p-nitrobenzyl loracarbef nucleus): 1.89
[5]; [9]
  Km: 310 µM
[6]; 0% DMF
  kcat (p-nitrobenzyl loracarbef nucleus): 9.13
[6]; [10]
  Km: 30 µM
[6]; 15% DMF
  kcat (p-nitrobenzyl loracarbef nucleus): 3.02
[6]; [9]
  Km: 370 µM
[7]; 0% DMF
  kcat (p-nitrobenzyl loracarbef nucleus): 18.96
[7]; [10]
  Km: 50 µM
[7]; 15% DMF
  kcat (p-nitrobenzyl loracarbef nucleus): 6.84
[7]; [9]
  Km: 460 µM
[7]; [11]
  KM change from wild type to 4-54B9: decreases by less than a factor of two
  kcat increase from wild type to 4-54B9: more than 9 fold
[8]
  kcat (p-nitrobenzyl loracarbef nucleus): 1.94
[8]; read-out: Km (p-nitrobenzyl loracarbef nucleus)
  Km: 40 µM

## NC1C(=O)N2C(C(=O)Oc3ccc([N+](=O)[O-])cc3)=C(Cl)CCC12 (stereo not drawn) [p-nitrophenyl loracarbef nucleus]
[1]; 15% DMF
  kcat (p-nitrophenyl loracarbef nucleus): 0.07
[1]; [12]
  Km: 1840 µM
[1]; 30% DMF
  kcat (p-nitrophenyl loracarbef nucleus): 0.021
[1]; [13]
  Km: 6050 µM
[2]; 0% DMF
  kcat (p-nitrophenyl loracarbef nucleus): 0.14
[2]; [14]
  Km: 70 µM
[2]; 15% DMF
  kcat (p-nitrophenyl loracarbef nucleus): 0.10
[2]; [12]
  Km: 2360 µM
[2]; 30% DMF
  kcat (p-nitrophenyl loracarbef nucleus): 0.024
[2]; [13]
  Km: 7550 µM
[3]; 0% DMF
  kcat (p-nitrophenyl loracarbef nucleus): 0.25
[3]; [14]
  Km: 90 µM
[3]; 15% DMF
  kcat (p-nitrophenyl loracarbef nucleus): 0.12
[3]; [12]
  Km: 1500 µM
[3]; 30% DMF
  kcat (p-nitrophenyl loracarbef nucleus): 0.023
[3]; [13]
  Km: 4670 µM
[4]; 0% DMF
  kcat (p-nitrophenyl loracarbef nucleus): 0.35
[4]; [14]
  Km: 110 µM
[4]; 15% DMF
  kcat (p-nitrophenyl loracarbef nucleus): 0.21
[4]; [12]
  Km: 1770 µM
[4]; 30% DMF
  kcat (p-nitrophenyl loracarbef nucleus): 0.044
[4]; [13]
  Km: 5180 µM
[5]; 0% DMF
  kcat (p-nitrophenyl loracarbef nucleus): 0.39
[5]; [14]
  Km: 60 µM
[5]; 15% DMF
  kcat (p-nitrophenyl loracarbef nucleus): 0.25
[5]; [12]
  Km: 1410 µM
[5]; 30% DMF
  kcat (p-nitrophenyl loracarbef nucleus): 0.067
[5]; [13]
  Km: 5680 µM
[6]; 0% DMF
  kcat (p-nitrophenyl loracarbef nucleus): 0.67
[6]; [14]
  Km: 80 µM
[6]; 15% DMF
  kcat (p-nitrophenyl loracarbef nucleus): 0.40
[6]; [12]
  Km: 1270 µM
[6]; 30% DMF
  kcat (p-nitrophenyl loracarbef nucleus): 0.094
[6]; [13]
  Km: 5090 µM
[7]; 0% DMF
  kcat (p-nitrophenyl loracarbef nucleus): 1.44
[7]; [14]
  Km: 120 µM
[7]; 15% DMF
  kcat (p-nitrophenyl loracarbef nucleus): 0.93
[7]; [12]
  Km: 1270 µM
[7]; 30% DMF
  kcat (p-nitrophenyl loracarbef nucleus): 0.141
[7]; [13]
  Km: 2920 µM
[8]
  kcat (p-nitrophenyl loracarbef nucleus): 0.08
[8]; read-out: Km (p-nitrophenyl loracarbef nucleus)
  Km: 30 µM

— US5945325A, “Thermally stable para-nitrobenzyl esterases” (priority 1998, dated 1999)
